According to patent US20100256357A1, “HETEROCYCLES USEFUL AS INHIBITORS OF CARBONIC ANHYDRASE” (Agouron Pharmaceuticals, Inc., priority 2006, published 2010):

Molecular target: T1, human CA-II (Homo sapiens, UniProt P00918)
T1 construct: purchased Sigma-Aldrich C6165
Test: Carbonic Anhydrase-II (CA-II) Fluorimetric Assay-IC50 Determination
Type: biochemical
Conditions: Kd ND, IC50 given instead; read-out: CA-II IC50 (where Kd is ND)
Method: Carbonic Anhydrase-II (CA-II) Fluorimetric Assay-IC50 Determination
Compounds were diluted in DMSO at the concentration of 1 mM, then 50 μM and transferred to a 96-well plate for further dilutions (1:3 dilution, 11 points) in duplicate. Highest final concentration of compound in this CA-II Fluorimetric assay is 1 μM. Assays were conducted in a final volume of 100 μL in 50 mM Tris/HCl (pH 7.6), 100 mM Na2SO4 and 0.005% Tween-20 in a 96-well black assay plate. Fluorescein diacetate was used as the substrate. Enzyme inhibition was determined by pipetting 8 μL of human CA-II (5 nM, from Sigma-Aldrich, product #: C6165) into assay plate contained 2 μL of compound and 2 μL of substrate (10 μM) in 88 μL of assay buffer. The rate of the hydrolysis of fluorescein diacetate were measured spectrophometrically at 488 nm (excitation), 538 nm (emission) and 530 nm (cutoff) using a Molecular Devices SpectraMax M2 fluorescence reader at 25° C.

| IC50 [nM] | Structure (SMILES) |
| --- | --- |
| 3.28 | CN(CC1CCCCO1)C(=O)c1nc(Cc2ccccc2)n(-c2ccc(S(N)(=O)=O)cc2)n1 (stereo not shown) [Example R-106, 1-[4-(aminosulfonyl)phenyl]-5-benzyl-N-methyl-N-(tetrahydro-2H-pyran-2-ylmethyl)-1H-124-triazole-3-carboxamide] |
| 3.61 | CN(Cc1ccccc1)C(=O)c1nc(Cc2ccccc2)n(-c2ccc(S(N)(=O)=O)cc2)n1 [Example R-109, 1-[4-(aminosulfonyl)phenyl]-N5-dibenzyl-N-methyl-1H-124-triazole-3-carboxamide] |
| 3.14 | NS(=O)(=O)c1ccc(-n2nc(C(=O)N3C[C@@H](F)[C@H](F)C3)nc2Cc2ccccc2)cc1 [Example R-111, 4-(5-benzyl-3-{[(3R4R)-34-difluoropyrrolidin-1-yl]carbonyl}-1H-124-triazol-1-yl)benzenesulfonamide] |

Molecular target: T2, human CA-IV (Homo sapiens, UniProt P22748)
T2 construct: made in house; host or cells: Escherichia coli BL21(DE3)
Test: Carbonic Anhydrase-IV (CA-IV) Fluorescence Polarization Assay-IC50 Determination
Type: binding
Conditions: read-out: IC50_CAIV
Method: Carbonic Anhydrase-IV (CA-IV) Fluorescence Polarization Assay-IC50 Determination
These cells were grown in Luria broth (LB) media (Biomyx) supplemented with 800 uM ZnCl2 at 37° C. until an O.D.600 of 0.7, at which point the cells were induced with 100 uM isopropyl-beta-D-thiogalactopyranoside (IPTG) for 20 hours at 20° C. The frozen pellet was resuspended in 50mM 2-morpholinoethanesulfonic acid (MES) at pH 6.0, 100 mM NaCl, 800 uM ZnCl2 and EDTA-Free protease inhibitors (Roche). The cells were lysed with a microfluidizer, the lysate was spun at 40,000 rpm for 45 minutes at 4° C., and the soluble fraction was dialyzed overnight at 4° C. in 50 mM MES pH 6.0, and 100 mM NaCl. The soluble fraction was then put over a 100 ml SP-Sepharose High Performance (GE Healthcare) column and eluted with a 50 mM MES pH 6.0, 750 mM NaCl gradient. The peak fractions were then concentrated, via an Amicon Ultra-4 10,000 MWCO (Millipore) spin column to 2.0 mL and loaded onto a Sephacryl S-100 High Resolution (GE Healthcare) column in 25 mM tris(hydroxymethyl)aminomethane hydrochloride (Tris-HCl) pH 7.0, and 100 mM NaCl. The peak fractions were then concentrated, via an Amicon Ultra-4 10,000 MWCO (Millipore) spin column, to 7.0 mg/mL and left exposed at room temperature overnight. […] T.; et al. Carbonic Anhydrase Inhibitors. Med. Res. Rev. […]
Assays were conducted in a final volume of 100 μL in 50 mM Tris/HCl (pH 7.6), 100 mM Na2SO4 and 0.005% Tween-20 in a 96-well black assay plate.

T2 sequence (P22748 19-284 limits assumed): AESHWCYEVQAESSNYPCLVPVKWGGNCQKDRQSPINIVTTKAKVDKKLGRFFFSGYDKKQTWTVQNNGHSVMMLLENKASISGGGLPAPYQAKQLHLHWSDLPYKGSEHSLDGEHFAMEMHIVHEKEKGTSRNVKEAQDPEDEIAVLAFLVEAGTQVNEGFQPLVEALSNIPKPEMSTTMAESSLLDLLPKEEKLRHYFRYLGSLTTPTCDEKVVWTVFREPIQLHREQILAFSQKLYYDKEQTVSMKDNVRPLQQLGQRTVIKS

| Structure (SMILES) | IC50 [nM] |
| --- | --- |
| CN(Cc1cc(Cc2ccccc2)n(-c2ccc(S(N)(=O)=O)cc2F)n1)C1CCCCC1 [Example -1h, 4-(5-benzyl-3-{[cyclohexyl(methyl)amino]methyl}-1H-pyrazol-1-yl)-3-fluorobenzenesulfonamide] | 186 |
| NS(=O)(=O)c1ccc(-n2nc3c(c2CN2CCOCC2)CCCC3)cc1 [II-1c, 4-[3-(morpholin-4-ylmethyl)-4,5,6,7-tetrahydro-2H-indazol-2-yl]benzenesulfonamide] | ≥ 5000 |
| CCNC(=O)c1cc(C)n(-c2ccc(S(N)(=O)=O)cc2C(=O)NCc2ccccc2)n1 [KK-1h, 1-{4-(aminosulfonyl)-2-[(benzylamino)carbonyl]phenyl}-N-ethyl-5-methyl-1H-pyrazole-3-carboxamide] | 2190 |
| CCNC(=O)c1cc(C)n(-c2ccc(S(N)(=O)=O)cc2C(=O)NCC)n1 [KK-1m, 1-{4-(aminosulfonyl)-2-[(ethylamino)carbonyl]phenyl}-N-ethyl-5-methyl-1H-pyrazole-3-carboxamide] | > 5000 |
| NS(=O)(=O)c1ccc(-n2nc(C(F)(F)F)c3c2CCNC3)c(C(=O)NCc2ccncc2)c1 [KK-1n, 5-(aminosulfonyl)-N-(pyridin-4-ylmethyl)-2-[3-(trifluoromethyl)-4,5,6,7-tetrahydro-1H-pyrazolo[4,3-c]pyridin-1-yl]benzamide] | > 5000 |
| CCNC(=O)c1cc(C)n(-c2ccc(S(N)(=O)=O)cc2C(=O)NCc2ccncc2)n1 [KK-1o, 1-[4-(aminosulfonyl)-2-{[(pyridin-4-ylmethyl)amino]carbonyl}phenyl]-N-ethyl-5-methyl-1H-pyrazole-3-carboxamide] | 4530 |
| NS(=O)(=O)c1ccc(-n2nc(C(F)(F)F)c3c2CCNC3)c(C(=O)NCc2ccccc2)c1 [KK-1p, 5-(aminosulfonyl)-N-benzyl-2-[3-(triflurormethyl)-4,5,6,7-tetrahydro-1H-pyrazolo[4,3-c]pyridin-1-yl]benzamide] | > 5000 |
| CCNC(=O)c1cc(C)n(-c2ccc(S(N)(=O)=O)cc2C(=O)OC(C)C)n1 [KK-1r] | 1310 |

Further lines, results first:

| IC50 [nM] | Structure (SMILES) |
| --- | --- |
| ≥ 5000 | CCNCc1cc(S(N)(=O)=O)ccc1-n1nc(C(F)(F)F)c2c1CCCC2 [LL-1, 3-[(Ethylamino)methyl]-4-[3-(trifluoromethyl)-4,5,6,7-tetrahydro-1H-indazol-1-yl]-benzene-sulfonamide] |
| > 5000 | Cc1cc(C(=O)N2CCOCC2)nn1-c1ccc(S(N)(=O)=O)cc1CNCc1ccccc1 [LL-1a, 3-[(benzylamino)methyl]-4-(5-methyl-3-(morpholin-4-ylcarbonyl)-1H-pyrazol-1-yl]benzenesulfonamide] |
| 114 | Cc1cccc(Cc2cc(CN3CCC(F)(F)C3)nn2-c2ccc(S(N)(=O)=O)cc2F)c1 [PP-1, 4-[3-[(3,3-difluoropyrrolidin-1-yl)methyl]-5-(3-methylbenzyl)-1H-pyrazol-1-yl]-3-fluorobenzenesulfonamide] |
| 168 | Cc1cccc(Cc2cc(CN3CCCC(C#N)C3)nn2-c2ccc(S(N)(=O)=O)cc2F)c1 (stereo not shown) [PP-1a, 4-[3-[(3-cyanopiperidin-1-yl)methyl]-5-(3-methylbenzyl)-1H-pyrazol-1-yl]-3-fluorobenzenesulfonamide] |
| 145 | COCCN(C)Cc1cc(Cc2cccc(C)c2)n(-c2ccc(S(N)(=O)=O)cc2F)n1 [PP-1b, 3-fluoro-4-[3-{[(2-methoxyethyl)(methyl)amino]methyl}-5-(3-methylbenzyl)-1H-pyrazol-1-yl]benzenesulfonamide] |
| 301 | CCCN(C)Cc1cc(Cc2ccccc2)n(-c2ccc(S(N)(=O)=O)cc2F)n1 [QQ-1, 4-(5-benzyl-3-{[methyl(propyl)amino]methyl}-1H-pyrazol-1-yl)-3-fluorobenzenesulfonamide] |
| 563 | NS(=O)(=O)c1ccc(-n2nc(CN3CCOCC3)cc2Cc2ccc(Cl)cc2)cc1 [QQ-1a, 4-[5-(4-chlorobenzyl)-3-(morpholin-4-ylmethyl)-1H-pyrazol-1-yl]benzenesulfonamide] |
| 281 | NS(=O)(=O)c1ccc(-n2nc(CNCC3CCCCC3)cc2Cc2ccc(Cl)cc2)cc1 [QQ-1b, 4-[5-(4-chlorobenzyl)-3-{[(cyclohexylmethyl)amino]methyl}-1H-pyrazol-1-yl]benzenesulfonamide] |
| 380 | CN(CCc1ccccn1)Cc1cc(Cc2ccc(Cl)cc2)n(-c2ccc(S(N)(=O)=O)cc2)n1 [QQ-1c, 4-[5-(4-chlorobenzyl)-3-{[methyl(2-pyridin-2-ylethyl)amino]methyl}-1H-pyrazol-1-yl]benzenesulfonamide] |
| 400 | C[C@@H]1CN(Cc2cc(Cc3ccccc3)n(-c3ccc(S(N)(=O)=O)cc3)n2)C[C@H](C)O1 [QQ-1d, 4-(5-benzyl-3-{[(2R,6S)-2,6-dimethylmorpholin-4-yl]methyl}-1H-pyrazol-1-yl)benzenesulfonamide] |
| 379 | CCCN(C)Cc1cc(Cc2ccccc2)n(-c2ccc(S(N)(=O)=O)cc2)n1 [QQ-1e, 4-(5-benzyl-3-{[methyl(propyl)amino]methyl}-1H-pyrazol-1-yl)benzenesulfonamide] |
| 171 | CCCCN(C)Cc1cc(Cc2ccc(Br)cc2)n(-c2ccc(S(N)(=O)=O)cc2F)n1 [QQ-1f] |
| 354 | NS(=O)(=O)c1ccc(-n2nc(CN3CC=CCC3)cc2Cc2ccccc2)c(F)c1 [QQ-1g, 4-[5-benzyl-3-(3,6-dihydropyridin-1(2H)-ylmethyl)-1H-pyrazol-1-yl]-3-fluorobenzenesulfonamide] |
| 480 | C[C@@H]1CN(Cc2cc(Cc3ccccc3)n(-c3ccc(S(N)(=O)=O)cc3F)n2)C[C@H](C)O1 [QQ-1i, 4-(5-benzyl-3-{[(2R,6S)-2,6-dimethylmorpholin-4-yl]methyl}-1H-pyrazol-1-yl)-3-fluorobenzenesulfonamide] |
| 278 | CCCCN(C)Cc1cc(Cc2ccccc2)n(-c2ccc(S(N)(=O)=O)cc2F)n1 [QQ-1j, 4-(5-benzyl-3-{[butyl(methyl)amino]methyl}-1H-pyrazol-1-yl)-3-fluorobenzenesulfonamide] |
| 253 | NS(=O)(=O)c1ccc(-n2nc(CN3CC=CCC3)cc2Cc2ccc(Br)cc2)c(F)c1 [QQ-1k, 4-[5-(4-bromobenzyl)-3-(3,6-dihydropyridin-1(2H)-ylmethyl)-1H-pyrazol-1-yl]-3-fluorobenzenesulfonamide] |
| 552 | NS(=O)(=O)c1ccc(-n2nc(CN3CC=CCC3)cc2Cc2ccccc2)cc1 [QQ-1l, 4-[5-benzyl-3-(3,6-dihydropyridin-1(2H)-ylmethyl)-1H-pyrazol-1-yl]benzenesulfonamine] |
| 314 | CN(Cc1cc(Cc2ccccc2)n(-c2ccc(S(N)(=O)=O)cc2)n1)C1CCCCC1 [QQ-1m, 4-(5-benzyl-3-{[cyclohexyl(methyl)amino]methyl}-1H-pyrazol-1-yl)benzenesulfonamide] |
| 455 | CCCCN(C)Cc1cc(Cc2ccc(Cl)cc2)n(-c2ccc(S(N)(=O)=O)cc2)n1 [QQ-1n, 4-[3-{[butyl(methyl)amino]methyl}-5-(4-chlorobenzyl)-1H-pyrazol-1-yl]benzenesulfonamide] |
| 308 | CN(Cc1cc(Cc2ccc(Cl)cc2)n(-c2ccc(S(N)(=O)=O)cc2)n1)C1CCCCC1 [QQ-1o, 4-[5-(4-chlorobenzyl)-3-{[cyclohexyl(methyl)amino]methyl}-1H-pyrazol-1-yl]benzenesulfonamide] |
